Test results: paper PMC12346557, “Design, Synthesis, and Anticancer Evaluation of New Small-Molecule EGFR Inhibitors Targeting NSCLC and Breast Cancer” (International Journal of Molecular Sciences, 2025)
Like-named read-outs stand apart in the source and are kept apart here.

Key:
MCF-7 cells [1] = assay: MTT cytotoxicity assay, MCF-7 cells; type: cell-based; conditions: Homo sapiens, triplicate; for inhibition at 100 µM: MCF7, 100 µM, 72 h; for IC50: MCF7, 72 h culture, 1-100 µM
A549 cells [2] = tested on: A549 cells; design: method as in ref 33 (3), 34 (4, 5), 36 (7), 38 (9), 39 (10), 11 (11); conditions: Figure 3; ref 33 (3), 34 (4, 5), 36 (7), 38 (9), 39 (10), 11 (11); cited from earlier work
EGFR = conditions: cited from earlier work; for IC50: Figure 3, read-out: EGFR inhibition: IC50; for EGFR inhibition: Figure 3, concentration not given, ref 36 (7), 11 (11)
MCF-7 cells [3] = tested on: MCF-7 cells; design: method as in ref 31 (1), 32 (2), 33 (3), 35 (6), 37 (8), 38 (9), 39 (10), 11 (11); conditions: Figure 3; ref 31 (1), 32 (2), 33 (3), 35 (6), 37 (8), 38 (9), 39 (10), 11 (11); cited from earlier work
A549 cells [4] = assay: MTT cytotoxicity assay, A549 cells; type: cell-based, human; conditions: triplicate; for IC50: Homo sapiens, A549, 72 h culture, 1-100 µM; for reduction of A549 cell viability: 100 µM, 72 h
Jurkat cells = assay: MTT cytotoxicity assay, Jurkat cells; type: cell-based, human; conditions: for IC50: Homo sapiens, Jurkat, MTT
Experimental: A549 and MCF-7 human cancer cell lines were cultured in Dulbecco’s Modified Eagle’s Medium (DMEM) (Wako Pure Chemical Industries, Osaka, Japan) supplemented with 10% fetal bovine serum (FBS) (Equitech-Bio, Kerrville, TX, USA). […] All media were supplemented with 89 μg/mL of streptomycin (Meiji Seika Pharma, Tokyo, Japan). […] Cancer cells and PBMCs were seeded into 24-well and 96-well microtiter tissue culture plates (Iwaki, Asahi Glass Co., Chiba, Japan) at densities of 4 × 10^4 cells/mL and 5 × 10^5 cells/mL, respectively, and incubated for 72 h prior to drug treatment. The optimal seeding density for cytotoxicity assays was determined through preliminary testing. […] The cellular reduction MTT (Dojindo Molecular Technologies, Kumamoto, Japan) was assessed following established protocols from the literature, with slight modifications.

PBMCs = assay: MTT cytotoxicity assay, PBMCs (healthy); type: cell-based; conditions: PBMC
Experimental: A549 and MCF-7 human cancer cell lines were cultured in Dulbecco’s Modified Eagle’s Medium (DMEM) (Wako Pure Chemical Industries, Osaka, Japan) supplemented with 10% fetal bovine serum (FBS) (Equitech-Bio, Kerrville, TX, USA). Jurkat cells, derived from human leukemia, were maintained in RPMI 1640 medium (Wako Pure Chemical Industries) with 10% FBS. PBMCs (Precision Bioservices, Frederick, MD, USA) were cultured in RPMI 1640 medium supplemented with 10% human AB serum (HS) (Gemini, Woodland, CA, USA). All media were supplemented with 89 μg/mL of streptomycin (Meiji Seika Pharma, Tokyo, Japan). Cells were incubated at 37 °C in a humidified atmosphere containing 95% air and 5% CO2. Cancer cells and PBMCs were seeded into 24-well and 96-well microtiter tissue culture plates (Iwaki, Asahi Glass Co., Chiba, Japan) at densities of 4 × 10^4 cells/mL and 5 × 10^5 cells/mL, respectively, and incubated for 72 h prior to drug treatment. The optimal seeding density for cytotoxicity assays was determined through preliminary testing. […] The cellular reduction MTT (Dojindo Molecular Technologies, Kumamoto, Japan) was assessed following established protocols from the literature, with slight modifications.

[5] = ref 31 (1), 33 (3), 35 (6), 37 (8), 38 (9), 39 (10)

COc1ccc(C2=NN(c3nc(-c4ccc([N+](=O)[O-])cc4)cs3)C(c3cnc(-c4ccc(Cl)cc4)nc3)C2)cc1 (centres unmarked) [BP-9, 1-(4-(4-Nitrophenyl)thiazol-2-yl)-3-(4-methoxyphenyl)-5-(2-(4-chlorophenyl)pyrimidin-5-yl)-2-pyrazoline]
inhibition at 100 µM (MCF-7 cells [1]): 27 to 53%

Cc1ccc(C2=NN(c3nc(-c4ccc([N+](=O)[O-])cc4)cs3)C(c3cnc(-c4ccc(Cl)cc4)nc3)C2)cc1 (centres unmarked) [BP-2, 1-(4-(4-Nitrophenyl)thiazol-2-yl)-3-(4-methylphenyl)-5-(2-(4-chlorophenyl)pyrimidin-5-yl)-2-pyrazoline]
inhibition at 100 µM (MCF-7 cells [1]): 27 to 53%

CCOC(=O)c1sc(N2N=C(c3ccc(Cl)cc3Cl)CC2c2ccc(OC)cc2)nc1C (centres unmarked) [Compound 4]
IC50 (A549 cells [2]): 4.22 µM | IC50 (EGFR; ref 32 (2), 34 (4, 5)): 0.0407 µM

C=CCn1c(SCC(=O)Nc2ccc(C(=O)/C=C/c3ccc(Cl)cc3)cc2)nnc1-c1cc(-c2ccccc2)nc2ccccc12 [Compound 10]
IC50 (A549 cells [2]): 3.6 ± 0.05 µM | IC50 (MCF-7 cells [3]): 3.3 ± 0.08 µM | IC50 (EGFR; [5]): 1.3 ± 1.2 µM

COc1ccc(C2=NN(c3nc(-c4ccccc4)cs3)C(c3cnc(-c4ccc(Cl)cc4)nc3)C2)cc1 (centres unmarked) [BP-8, 1-(4-Phenylthiazol-2-yl)-3-(4-methoxyphenyl)-5-(2-(4-chlorophenyl)pyrimidin-5-yl)-2-pyrazoline]
inhibition at 100 µM (MCF-7 cells [1]): 27 to 53%

Cc1ccc(C2=NN(c3nc(-c4ccccc4)cs3)C(c3cnc(-c4ccc(Cl)cc4)nc3)C2)cc1 (centres unmarked) [BP-1, 1-(4-Phenylthiazol-2-yl)-3-(4-methylphenyl)-5-(2-(4-chlorophenyl)pyrimidin-5-yl)-2-pyrazoline]
inhibition at 100 µM (MCF-7 cells [1]): 27 to 53% | IC50 (MCF-7 cells [1]): 91.6 ± 10.2 µM | IC50 (A549 cells [4]): > 100 µM | IC50 (Jurkat cells): > 100 µM

COc1ccc(C2CC(c3ccc(Cl)cc3Cl)=NN2c2nc(C)c(C(=O)Nc3ccccc3)s2)cc1OC (centres unmarked) [Compound 5]
IC50 (A549 cells [2]): 2.92 µM | IC50 (EGFR; ref 32 (2), 34 (4, 5)): 0.0325 µM

CCc1nnc2c(Nc3ccc(C(=O)/C=C/c4ccc(OC)cc4)cc3)nc3ccccc3n12 [Compound 8]
IC50 (MCF-7 cells [3]): 8.23 ± 0.25 µM | IC50 (EGFR; [5]): 0.083 ± 0.04 µM

Cc1ccc(C2=NN(c3nc(-c4ccc(Cl)cc4)cs3)C(c3ccc(F)cc3)C2)cc1C (centres unmarked) [Compound 1]
IC50 (MCF-7 cells [3]): 0.07 µM | IC50 (EGFR; [5]): 0.06 µM

N#Cc1ccc(-c2csc(N3N=C(c4ccc(N5CCOCC5)cc4)CC3c3ccc(Cl)cc3)n2)cc1 (centres unmarked) [Compound 3]
IC50 (A549 cells [2]): 10.8 µM | IC50 (MCF-7 cells [3]): 8.05 µM | IC50 (EGFR; [5]): 4.34 µM

Cc1ccc(C2=NN(C(N)=S)C(c3cnc(-c4ccc(Cl)cc4)nc3)C2)cc1 (centres unmarked) [Compound B-6, 3-(4-Methylphenyl)-5-(2-(4-chlorophenyl)pyrimidin-5-yl)-1-thiocarbamoyl-2-pyrazoline]
inhibition at 100 µM (MCF-7 cells [1]): 79% | IC50 (MCF-7 cells [1]): 6.52 ± 0.97 µM | reduction of A549 cell viability (A549 cells [4]): 44% | IC50 (A549 cells [4]): > 100 µM | IC50 (Jurkat cells): 15.1 ± 2.85 µM | SI (Selectivity Index) (Jurkat cells; IC50 for PBMC/IC50 for Jurkat cell line): 7.49 | IC50 (PBMCs): 113 ± 15.1 µM

Cc1ccc(C2=NN(c3nc(-c4ccc(Cl)cc4)cs3)C(c3cnc(-c4ccc(Cl)cc4)nc3)C2)cc1 (centres unmarked) [BP-4, 1-(4-(4-Chlorophenyl)thiazol-2-yl)-3-(4-methylphenyl)-5-(2-(4-chlorophenyl)pyrimidin-5-yl)-2-pyrazoline]
inhibition at 100 µM (MCF-7 cells [1]): 27 to 53%

COc1ccc2nc(Cl)c(C3CC(c4ccc(C)cc4)=NN3c3nc(-c4ccc(F)cc4)cs3)cc2c1 (centres unmarked) [Compound 2]
IC50 (MCF-7 cells [3]): 0.227 µM | IC50 (EGFR; ref 32 (2), 34 (4, 5)): 0.0318 µM

COc1ccc(C2=NN(c3nc(-c4ccc(Br)cc4)cs3)C(c3cnc(-c4ccc(Cl)cc4)nc3)C2)cc1 (centres unmarked) [BP-12, 1-(4-(4-Bromophenyl)thiazol-2-yl)-3-(4-methoxyphenyl)-5-(2-(4-chlorophenyl)pyrimidin-5-yl)-2-pyrazoline]
inhibition at 100 µM (MCF-7 cells [1]): 27 to 53%

COc1ccc(C2=NN(c3nc(-c4ccc(C#N)cc4)cs3)C(c3cnc(-c4ccc(Cl)cc4)nc3)C2)cc1 (centres unmarked) [BP-13, 1-(4-(4-Cyanophenyl)thiazol-2-yl)-3-(4-methoxyphenyl)-5-(2-(4-chlorophenyl)pyrimidin-5-yl)-2-pyrazoline]
inhibition at 100 µM (MCF-7 cells [1]): 27 to 53%

COc1ccc(C2=NN(c3nc(-c4ccc(F)cc4)cs3)C(c3cnc(-c4ccc(Cl)cc4)nc3)C2)cc1 (centres unmarked) [BP-10, 1-(4-(4-Fluorophenyl)thiazol-2-yl)-3-(4-methoxyphenyl)-5-(2-(4-chlorophenyl)pyrimidin-5-yl)-2-pyrazoline]
inhibition at 100 µM (MCF-7 cells [1]): 27 to 53% | IC50 (MCF-7 cells [1]): 76 ± 9.91 µM | IC50 (A549 cells [4]): > 100 µM | IC50 (Jurkat cells): > 100 µM

CS(=O)(=O)CCNCc1ccc(-c2ccc3ncnc(Nc4ccc(OCc5cccc(F)c5)c(Cl)c4)c3c2)o1 [Lapatinib, lapatinib, reference compound]
IC50 (PBMCs): 11 ± 2.47 µM

COc1ccc(C2CC(c3ccc(OC)c(OC)c3)=NN2c2nc(-c3ccccc3)cs2)cc1 (centres unmarked) [Compound 6]
IC50 (MCF-7 cells [3]): 7.21 µM | IC50 (EGFR; [5]): 0.009 µM

Cc1ccc(C2=NN(c3nc(-c4ccc(C#N)cc4)cs3)C(c3cnc(-c4ccc(Cl)cc4)nc3)C2)cc1 (centres unmarked) [BP-6, 1-(4-(4-Cyanophenyl)thiazol-2-yl)-3-(4-methylphenyl)-5-(2-(4-chlorophenyl)pyrimidin-5-yl)-2-pyrazoline]
inhibition at 100 µM (MCF-7 cells [1]): 27 to 53%

COc1ccc(C2=NN(C(N)=S)C(c3cnc(-c4ccc(Cl)cc4)nc3)C2)cc1 (centres unmarked) [Compound B-7, 3-(4-methoxyphenyl)-5-(2-(4-chlorophenyl)pyrimidin-5-yl)-1-thiocarbamoyl-2-pyrazoline]
inhibition at 100 µM (MCF-7 cells [1]): 39% | reduction of A549 cell viability (A549 cells [4]): 35%

COc1ccc(C(=O)/C=C/c2cnc(-c3ccc(Cl)cc3)nc2)cc1OC [Compound 11]
IC50 (A549 cells [2]): 20.5 ± 2.7 µM | IC50 (MCF-7 cells [3]): 6.7 ± 1.02 µM | EGFR inhibition (EGFR): 46%

Cc1ccc(C2=NN(c3nc(-c4ccc(F)cc4)cs3)C(c3cnc(-c4ccc(Cl)cc4)nc3)C2)cc1 (centres unmarked) [BP-3, 1-(4-(4-Fluorophenyl)thiazol-2-yl)-3-(4-methylphenyl)-5-(2-(4-chlorophenyl)pyrimidin-5-yl)-2-pyrazoline]
inhibition at 100 µM (MCF-7 cells [1]): 27 to 53%

Cc1ccc(C2=NN(c3nc(-c4ccc(C(F)(F)F)cc4)cs3)C(c3cnc(-c4ccc(Cl)cc4)nc3)C2)cc1 (centres unmarked) [BP-7, 1-(4-(4-Trifluoromethylphenyl)thiazol-2-yl)-3-(4-methylphenyl)-5-(2-(4-chlorophenyl)pyrimidin-5-yl)-2-pyrazoline]
inhibition at 100 µM (MCF-7 cells [1]): 27 to 53% | reduction of A549 cell viability (A549 cells [4]): 33%

COc1ccc(C2=NN(c3nc(-c4ccc(C(F)(F)F)cc4)cs3)C(c3cnc(-c4ccc(Cl)cc4)nc3)C2)cc1 (centres unmarked) [BP-14, 1-(4-(4-Trifluoromethylphenyl)thiazol-2-yl)-3-(4-methoxyphenyl)-5-(2-(4-chlorophenyl)pyrimidin-5-yl)-2-pyrazoline]
inhibition at 100 µM (MCF-7 cells [1]): 27 to 53%

Clc1ccc(C2CC(c3ccc4ccccc4c3)=NN2c2nc(-c3ccc(Br)cc3)cs2)cc1 (centres unmarked) [Compound 7]
IC50 (A549 cells [2]): 9.51 µM | EGFR inhibition (EGFR): 58%

Cc1ccc(C2=NN(c3nc(-c4ccc(Br)cc4)cs3)C(c3cnc(-c4ccc(Cl)cc4)nc3)C2)cc1 (centres unmarked) [BP-5, 1-(4-(4-Bromophenyl)thiazol-2-yl)-3-(4-methylphenyl)-5-(2-(4-chlorophenyl)pyrimidin-5-yl)-2-pyrazoline]
inhibition at 100 µM (MCF-7 cells [1]): 27 to 53% | reduction of A549 cell viability (A549 cells [4]): 21%

Cn1c(=O)c2[nH]c(SCC(=O)Nc3ccc(C(=O)/C=C/c4ccc(Cl)cc4)cc3)nc2n(C)c1=O [Compound 9]
IC50 (A549 cells [2]): 1.8 ± 0.7 µM | IC50 (MCF-7 cells [3]): 1.3 ± 0.9 µM
